Key:
[1] = test system: RED STAR yeast; experiment: Dose/response study of salicylic acid in conventional SSF; type: cell-based
Experimental: The experiment was carried out as described in Example 1, except that the following enzyme blends was used for all treatments: • 0.3 AGU Talaromyces emersonii glucoamylase/g DS; • 0.0025 mg Rhizomucor pusillus alpha-amylase/g DS; and • 0.0125 mg Trametes cingulata glucoamylase/g DS. All treatments and controls included 8 replicates. [table]

[2] = test system: yeast; experiment: One-step fermentation of ground corn slurry with T. cingulata GA + R. pusillus AA blend, ethanol by HPLC; type: cell-based; conditions: for Ethanol yield: one-step fermentation
Experimental: All treatments were evaluated via mini-scale fermentations. 410 g of ground yellow dent corn (with an average particle size around 0.5 mm) was added to 590 g tap water. This mixture was supplemented with 3.0 mL 1 g/L penicillin and 1 g of urea. The pH of this slurry was adjusted to 4.5 with 40% H2SO4. Dry solid (DS) level was determined to be 35 wt. %. Approximately 5 g of this slurry was added to 20 mL vials. Each vial was dosed with the appropriate amount of enzyme dosage shown in Table 2 below followed by addition of 200 microL yeast propagate/5 g slurry. Actual enzyme dosages were based on the exact weight of corn slurry in each vial. Vials were incubated at 32° C. Nine replicate fermentations of each treatment were run. Three replicates were selected for 24 hours, 48 hours and 70 hours time point analysis. Vials were vortexed at 24, 48 and 70 hours and analyzed by HPLC. The HPLC preparation consisted of stopping the reaction by addition of 50 microL of 40% H2SO4, centrifuging, and filtering through a 0.45 micrometer filter. Samples were stored at 4 C until analysis. Agilent™ 1100 HPLC system coupled with RI detector was used to determine ethanol and oligosaccharides concentration. The separation column was aminex HPX-87H ion exclusion column (300 mm×7.8 mm) from BioRad™).
The experiment was carried out as described in Example 2, except that salicylic acid (SA) was replaced with acetyl salicylic acid (ASA). The treatment and enzyme dosing was described in table below.

[3] = test system: yeast; experiment: Yield boosting effect of salicylic acid on ethanol production from starch-containing material (conventional SSF), summary findings; type: cell-based
Excerpt: Further, the effect on yeast growth is 2-fold.

[4] = test system: RED STAR yeast; experiment: Conventional simultaneous saccharification fermentation (SSF) of liquefied corn mash, ethanol yield by weight loss and HPLC; type: cell-based; conditions: weight loss method, all the enzymes tested, FIGS. 1, 2 and 3
Experimental: Liquefied corn mash was used to evaluate the effect of adding salicylic acid (SA) to a known enzyme dosage of
The performance of these enzymes was compared to controls without salicylic acid addition. The experimental set-up used is described in table below.
5.5 g of RED STAR™ yeast was rehydrated in 100 mL distilled water and incubated at 32° C. for 30 minutes prior to the beginning of fermentation. Approximately 50 million cells/g DS of yeast were added to each of the fermentations.
The corn mash was thawed to room temperature. Urea and Penicillin were added to a final concentration of […] and 3 mg/L respectively. Small-scale (˜4 g) fermentations were carried out in 15 mL polypropylene tubes with five replicates for each experimental condition. The tubes were prepared by drilling a 1/32 inch (1.5 mm) hole and the empty tubes were then weighed before liquefied corn mash was added. The tubes were weighed again after mash was added to determine the exact weight of mash in each tube. This weight was used to calculate the enzyme dosage necessary as follows:
Enzyme was added according to dosage described in table above and 100 μl of rehydrated yeast were added to each tube to begin fermentation. Fermentation progress was followed by weighing the tubes over time for approximately 70 hours. Tubes were vortexed briefly before each weighing. […]

[5] = test system: Pichia stipitis (CBS6054); conditions: salicylic acid 5 mM, 30° C., pH 6, FIG. 9

Which “Glycerol after 70 hours of fermentation” value ([1]; HPLC, as a function of SA dose, FIG. 8) does the source give for `O=C(O)c1ccccc1O` [SA, salicylic acid] here?
Its value is “consistently reduced the amount of the by-product glycerol”.

And the “Fermentation kinetics and final ethanol yield” value ([1]; weight loss data, FIG. 6)?
Its value is “increased the fermentation kinetics and final ethanol yield”.

And the Ethanol yield ([2]; SA 1 mM (mM/g DS), 24 hours)?
The Ethanol yield was 107.77.

What about the Ethanol yield ([2]; SA 1 mM (mM/g DS), 48 hours) of the same compound?
Its Ethanol yield is 144.61.

And the Ethanol yield ([2]; SA 1 mM (mM/g DS), 70 hours)?
The Ethanol yield was 151.80.

What about the Ethanol yield ([2]; SA 2.5 mM (mM/g DS), 24 hours) of the same compound?
Its Ethanol yield is 107.53.

And the Ethanol yield ([2]; SA 2.5 mM (mM/g DS), 48 hours)?
Its Ethanol yield is 143.11.

And the Ethanol yield ([2]; SA 2.5 mM (mM/g DS), 70 hours)?
The Ethanol yield was 150.80.

And the Ethanol yield ([2]; SA 5 mM (mM/g DS), 24 hours)?
Its Ethanol yield is 104.46.

What about the Ethanol yield ([2]; SA 5 mM (mM/g DS), 48 hours) of the same compound?
The Ethanol yield was 137.21.

What about the Ethanol yield ([2]; SA 5 mM (mM/g DS), 70 hours) of the same compound?
Its Ethanol yield is 146.07.

What about the Ethanol yield ([2]; SA 15 mM (mM/g DS), 24 hours) of the same compound?
Its Ethanol yield is 75.03.

What about the Ethanol yield ([2]; SA 15 mM (mM/g DS), 48 hours) of the same compound?
The Ethanol yield was 117.40.

And the Ethanol yield ([2]; SA 15 mM (mM/g DS), 70 hours)?
The Ethanol yield was 126.40.

And the “Fermentation speed and final ethanol yield” value ([2]; Trametes cingulata GA and Rhizomucor pusillus AA blend, FIG. 4)?
The value was “increases the fermentation speed and final ethanol yield”.

And the Residual glucose ([3]; at high salicylic acid concentrations)?
Its Residual glucose is “increased”.

And the “Effect on yeast growth” value ([3]; at higher concentrations)?
The value was “reduce yeast growth”.

What about the “Effect on cell growth” value ([3]; at lower concentration) of the same compound?
Its value is “positive effect on cell growth”.

And the Effective concentration range ([3]; by HPLC)?
The Effective concentration range was 1.25 to 2.5 mM.

And the Maximum ethanol increase ([3]; by HPLC)?
Its Maximum ethanol increase is 1.3%.

What about the Effective concentration range ([3]; by weight loss determination) of the same compound?
Its Effective concentration range is 0.63 to 2.5 mM.

And the Maximum ethanol increase ([3]; by weight loss determination)?
Its Maximum ethanol increase is 3.5%.

What about the Glycerol production ([3]; with increasing salicylic acid concentration) of the same compound?
Its Glycerol production is “decreased dramatically”.

What about the “Fermentation kinetic and final ethanol yield” value [4] of the same compound?
Its value is “increases the fermentation kinetic and also final ethanol yield”.

What about the “Ability of P. stipitis to tolerate the inhibitors in the unwashed biomass hydrolyzate” value [5] of the same compound?
Its value is “improves the ability of P. stipitis to tolerate the inhibitors”.

How did the Ethanol yield ([2]; ASA 1 mM (mM/g DS), 24 hours) turn out when `CC(=O)Oc1ccccc1C(=O)O` [ASA, acetyl salicylic acid, reference compound] was run?
Its Ethanol yield is 108.19.

What about the Ethanol yield ([2]; ASA 1 mM (mM/g DS), 48 hours) of the same compound?
Its Ethanol yield is 153.37.

What about the Ethanol yield ([2]; ASA 1 mM (mM/g DS), 70 hours) of the same compound?
Its Ethanol yield is 160.39.

What about the “Fermentation kinetic and final ethanol yield” value ([2]; ASA 1.0 mM/g DS, FIG. 5) of the same compound?
Its value is “gave an increase in fermentation kinetic and also final ethanol yield”.

Reference: patent publication US20080145903A1, “PROCESSES OF PRODUCING FERMENTATION PRODUCTS” (priority 2006, published 2008)
